The source of these data is US20260097101A1, “Compositions for Use in the Treatment of Diabetes or Obesity” (Dia Beta Labs Ltd, priority 2022, published 2026).

Where two headings read alike, the source gives them in different places. No end group written: not given here.

The target in series [1] is T1, purified porcine DPP-4 (Sus scrofa, UniProt P22411).
T1 construct: purchased Sigma-Aldrich
Description: In vitro DPP-4 stability (RP-HPLC and MALDI-ToF degradation profiles). Type of series: in vitro ADME. Particulars: for DPP-4 stability: pH 7.4. On the procedure:
To establish in vitro stability of PP and [P^3]PP, peptides (10 μg) were incubated with purified porcine DPP-4 (5 mU in 50 mmol/l triethanolamine/HCl, pH 7.4; Sigma-Aldrich) for 0-8 hours and degradation profiles examined using RP-HPLC and MALDI-ToF, employing the same systems as outlined above. Sequence of native PP and [P3]PP using one letter amino acid notation. The amino acid substitution in [P3]PP is denoted by bold underlined text. In vitro DPP-4 stability was assessed following incubation of test peptides with purified DPP-4 (5 mU) for 0-8 h.

The test system of series [2] is BRIN-BD11 cells. Description: Beta-cell proliferation (Ki-67 staining), with and without Y4 antagonist (S)-VU0637120. Format: cell-based, rodent. Particulars: 10^-8 and 10^-6 M, 18 h. The procedure:
FIG. 1 illustrates the effects PP peptides on cell viability, insulin release, proliferation and apoptosis from rodent BRIN-BD11 cells. (A) Cells were incubated with test peptides (10^−8-10^−6 M) for 18 h prior to addition of MTT. (B, C) Cells were incubated (20 min) with (B) 16.7 mM glucose or (C) 16.7 mM glucose supplemented with alanine (10 mM), alone and together with test peptides (10^−12-10^−6 M) and insulin secretion assessed by RIA. (D, E) To assess effects on BRIN BD11 beta-cell proliferation and apoptosis and receptor selectivity, cells were incubated with test peptides (10^−8-10^−6 M) alone, or together with cytokine mix (IL-1β 100 Uml, IFN-γ 20 U/ml, TNF-α 200 U/ml), in the absence and presence of the Y4 antagonist, (S)-VU0637120, (10^−5 M), as specified, for 18 h prior to staining for (D) Ki-67 or (E) TUNEL. Values are mean±SEM (n=8). *p<0.05, **p<0.01 and ***p<0.001 compared with appropriate control culture, namely (A, D, E) media alone or (B, C) 16.7 mM glucose. ^Δp<0.05, ^ΔΔp<0.01, ^ΔΔΔp<0.001 compared to (C) 10 mM alanine or (E) cytokine mix. ^φp<0.05, ^φφp<0.01, ^φφφp<0.001 compared to effects in the absence of the NPYR4 antagonist (S)-VU0637120. […] Proliferation/TUNEL positive frequency was determined using the cell-counter function on ImageJ Software and expressed as % of total cells analysed, as described previously from our laboratory. […]

T1 sequence (P22411 whole entry): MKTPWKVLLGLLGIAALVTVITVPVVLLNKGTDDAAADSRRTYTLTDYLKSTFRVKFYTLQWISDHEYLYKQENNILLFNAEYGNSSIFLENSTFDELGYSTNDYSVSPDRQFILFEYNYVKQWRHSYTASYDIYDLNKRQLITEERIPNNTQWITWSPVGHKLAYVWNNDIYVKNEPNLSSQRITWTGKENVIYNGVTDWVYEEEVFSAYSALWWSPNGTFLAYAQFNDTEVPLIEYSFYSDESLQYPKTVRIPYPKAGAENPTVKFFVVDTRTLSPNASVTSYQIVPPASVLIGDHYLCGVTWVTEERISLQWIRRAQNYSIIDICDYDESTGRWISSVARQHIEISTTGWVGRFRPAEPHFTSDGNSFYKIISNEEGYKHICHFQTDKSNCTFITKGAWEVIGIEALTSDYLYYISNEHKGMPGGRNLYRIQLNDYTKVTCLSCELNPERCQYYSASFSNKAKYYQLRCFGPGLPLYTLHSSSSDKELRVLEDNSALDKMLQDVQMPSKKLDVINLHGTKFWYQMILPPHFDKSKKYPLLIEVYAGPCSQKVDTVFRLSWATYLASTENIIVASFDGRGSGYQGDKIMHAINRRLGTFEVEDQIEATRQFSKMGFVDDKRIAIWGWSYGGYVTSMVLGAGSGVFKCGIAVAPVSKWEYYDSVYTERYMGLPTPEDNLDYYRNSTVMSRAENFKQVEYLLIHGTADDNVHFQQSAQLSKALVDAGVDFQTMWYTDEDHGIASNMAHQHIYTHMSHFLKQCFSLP

“APPEPVYPGDNAKPEQMAQYAADLRRYINMKTRPRY-NH2 (C-terminus assumed) [[P^3]PP]”: in series [1] (incubation with DPP-4, 0-8 h), the DPP-4 mediated degradation entry is reported as “completely resistant”. This compound yielded a DPP-4 stability in series [1] (purified DPP-4 (5 mU), incubation 0-8 h) of over 8 h. Take “GLP-1: GLP-1 (10^-8 and 10^-6 M) employed as control in proliferation studies”: in series [2], the “BRIN-BD11 cell proliferation (Ki-67)” value is reported as “augmented”. `CC[C@H](C)[C@H](NC(=O)[C@H](Cc1ccc(O)cc1)NC(=O)[C@H](CCCNC(=N)N)NC(=O)[C@H](CCCNC(=N)N)NC(=O)[C@H](CC(C)C)NC(=O)[C@H](CC(=O)O)NC(=O)[C@H](C)NC(=O)[C@H](C)NC(=O)[C@H](Cc1ccc(O)cc1)NC(=O)[C@H](CCC(N)=O)NC(=O)[C@H](C)NC(=O)[C@H](CCSC)NC(=O)[C@H](CCC(N)=O)NC(=O)[C@H](CCC(=O)O)NC(=O)[C@@H]1CCCN1C(=O)[C@@H](NC(=O)[C@H](C)NC(=O)[C@H](CC(N)=O)NC(=O)[C@H](CC(=O)O)NC(=O)CNC(=O)[C@@H]1CCCN1C(=O)[C@H](Cc1ccc(O)cc1)NC(=O)[C@@H](NC(=O)[C@@H]1CCCN1C(=O)[C@H](CCC(=O)O)NC(=O)[C@H](CC(C)C)NC(=O)[C@@H]1CCCN1C(=O)[C@H](C)N)C(C)C)[C@@H](C)O)C(=O)N[C@@H](CC(N)=O)C(=O)N[C@@H](CCSC)C(=O)N[C@@H](CC(C)C)C(=O)N[C@H](C(=O)N[C@@H](CCCNC(=N)N)C(=O)N1CCC[C@H]1C(=O)N[C@@H](CCCNC(=N)N)C(=O)N[C@@H](Cc1ccc(O)cc1)C(N)=O)[C@@H](C)O` [Native PP]: in series [1], the DPP-4 mediated degradation entry is given as “generation of the N-terminally cleaved product, PP(3-36)” and the DPP-4 stability is given as under 2 h.
